One assay deals with T1, alpha2-adrenoceptor (Cavia porcellus, UniProt Q60474).
T1 construct: The left atrium is removed, dissected free of extraneous tissue and mounted in a 2 ml superfusion chamber; from tissue; host or cells: left atrium of male guinea pig (sympathetic nerve terminals)
T1 sequence (Q60474 1-464): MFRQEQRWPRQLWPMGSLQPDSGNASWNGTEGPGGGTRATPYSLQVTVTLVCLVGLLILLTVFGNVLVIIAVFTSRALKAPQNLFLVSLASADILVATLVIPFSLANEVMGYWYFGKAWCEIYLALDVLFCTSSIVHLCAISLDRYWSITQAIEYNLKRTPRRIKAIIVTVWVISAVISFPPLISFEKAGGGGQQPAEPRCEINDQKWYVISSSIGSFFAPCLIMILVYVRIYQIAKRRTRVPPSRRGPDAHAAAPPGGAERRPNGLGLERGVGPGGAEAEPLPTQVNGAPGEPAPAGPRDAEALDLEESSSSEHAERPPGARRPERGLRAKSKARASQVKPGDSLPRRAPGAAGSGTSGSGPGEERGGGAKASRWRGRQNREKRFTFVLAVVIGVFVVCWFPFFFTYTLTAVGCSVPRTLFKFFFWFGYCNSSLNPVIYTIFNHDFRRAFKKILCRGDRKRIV
The experiment in a line: prejunctional alpha2-antagonist activity in isolated superfused guinea pig left atrium (shift of clonidine concentration-response curve). The assay is classed as cell-based. On the procedure: Briefly, the heart is removed from a pentobarbital-anesthetized male guinea pig. The left atrium is removed, dissected free of extraneous tissue and mounted in a 2 ml superfusion chamber. The tissue is paced at 60 pulse/minute and the sympathetic nerves excited at 6 minute intervals by field stimulation. The response to nerve stimulation is measured as the difference in contractile force between the basal contraction and peak contraction following a nerve stimulation. A concentration-response curve for clonidine (a known alpha2 -agonist) is prepared by administering increasing concentrations of clonidine following each successive stimulation. The tissue is, then, superfused with the alpha2 -antagonist to be tested for thirty minutes and the clonidine concentration-effect curve is repeated in the presence of antagonist. The receptor dissociation constant of the antagonist (KB) is defined as the antagonist concentration required to shift the log concentration-response curve of the agonist to the right by a factor of 2.
Pharmacol. 309 217-224 (1979).

Another assay concerns platelet. Put plainly: platelet test (method not described). The assay is classed as cell-based.

Experimental findings from patent US4469634A, “Allyloxy- and allylthio-2,3,4,5-tetrahydro-1H-3-benzazepines” (SmithKline Beckman Corporation, priority 1982, dated 1984) are described below.

Counter-ions that a name gives are not always drawn. Like-named read-outs stand apart in the source and are kept apart here.

As a reminder, the Kb is the equilibrium dissociation constant of an antagonist, usually derived from a functional assay. For the molecule `C=CCSc1ccc2c(c1)CCNCC2` [Example 1, 7-allylthio-2,3,4,5-tetrahydro-1H-3-benzazepine hydrochloride], the Kb at alpha2-adrenoceptor is 380 nM.
As a reminder, the EC50 is the concentration giving half of the maximal effect. The low end stands for an effect from little substance, the high end for a need for much substance. In turn, `C=CCOc1ccc(Cl)c2c1CCN(C)CC2` [Example 2, 9-allyloxy-6-chloro-3-methyl-2,3,4,5-tetrahydro-1H-3-benzazepine hydrochloride] had an EC50 in the assay with platelet of 90 nM. Further, the Kb on alpha2-adrenoceptor was found to be 320 nM.
For `C=CCOc1cccc2c1CCN(C)CC2` [Example 5, 6-allyloxy-3-methyl-2,3,4,5-tetrahydro-1H-3-benzazepinehydrochloride], at alpha2-adrenoceptor (isolated superfused guinea pig left atrium, clonidine as agonist, antagonist superfused thirty minutes, read-out: KB, guinea pig atrium (receptor dissociation constant of the antagonist)), the Kb was determined as 160 nM.
